Data as given in the supplement of paper PMC10307832.

What was measured:
Assay in all cases: relative viability (nuclei count vs DMSO), 5 days (fraction); higher = more cells survive
[1] = compound: C[As](C)SC[C@H](NC(=O)CC[C@H](N)C(=O)O)C(=O)NCC(=O)O [Darinaparsin] + CC(C)C[C@H](NC(=O)[C@H](Cc1ccccc1)NC(=O)c1cnccn1)B(O)O [Bortezomib] (partner 0.002 µM)
In short: (§1)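 Medians of duplicate plates are given as relative viability. That measure is the nuclei count in treated wells divided by the count in vehicle wells. Counts were taken on 4× images of lung cancer cell lines in 1536-well plates, 5 days after pin-tool dosing the day after seeding with one drug alone or a fixed anchor-drug dose plus five library-drug doses (not always all listed) in √10 steps.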

[2] = compound: CC1=C(C=C(C=C1)NC(=O)C2=CC(=CC=C2)C(C)(C)C#N)NC3=CC4=C(C=C3)N=CN(C4=O)C [AZ628] + Nc1nc2[nH]cc(CCc3ccc(C(=O)N[C@@H](CCC(=O)O)C(=O)O)cc3)c2c(=O)[nH]1 [Pemetrexed] (partner 0.2 µM)
In short: as §1

[3] = compound: C[As](C)SC[C@H](NC(=O)CC[C@H](N)C(=O)O)C(=O)NCC(=O)O [Darinaparsin] + CS(=O)(=O)CCNCc1ccc(-c2ccc3ncnc(Nc4ccc(OCc5cccc(F)c5)c(Cl)c4)c3c2)o1 [Lapatinib] (partner 2 µM)
In short: as §1

[4] = compound: C[As](C)SC[C@H](NC(=O)CC[C@H](N)C(=O)O)C(=O)NCC(=O)O [Darinaparsin] + Cc1cc(Nc2cc(N3CCN(C)CC3)nc(Sc3ccc(NC(=O)C4CC4)cc3)n2)n[nH]1 [Tozasertib] (partner 0.1 µM)
In short: as §1

Row | Cell Line | relative viability ([1]; first compound 0.08 µM) | relative viability ([1]; first compound 0.8 µM) | relative viability ([1]; first compound 2.53 µM) | relative viability ([1]; first compound 8 µM) | relative viability ([2]; first compound 0.08 µM) | relative viability ([2]; first compound 0.253 µM) | relative viability ([2]; first compound 0.8 µM) | relative viability ([2]; first compound 2.53 µM) | relative viability ([2]; first compound 8 µM) | relative viability ([3]; first compound 0.08 µM) | relative viability ([3]; first compound 0.8 µM) | relative viability ([3]; first compound 2.53 µM) | relative viability ([3]; first compound 8 µM) | relative viability ([4]; first compound 0.08 µM) | relative viability ([4]; first compound 0.8 µM) | relative viability ([4]; first compound 2.53 µM) | relative viability ([4]; first compound 8 µM)
1 | NCI-H1355 | 1.38 | 1.13 | 1.19 | 1.36 | 1.06 | 1.02 | 0.843 | 0.996 | 0.716 | 1.11 | 0.845 | 0.893 | 1.17 | 0.571 | 0.568 | 0.44 | 0.499
2 | NCI-H2405 | 1.08 | 0.936 | 0.899 | 1.09 | 0.839 | 0.698 | 0.673 | 0.632 | 0.624 | 1.04 | 1.01 | 1.04 | 1.1 | 0.777 | 0.776 | 0.703 | 0.889
3 | NCI-H2023 | 1.36 | 0.956 | 0.892 | 1.06 | 0.272 | 0.208 | 0.193 | 0.201 | 0.125 | 1 | 0.85 | 0.63 | 1.2 | 0.696 | 0.306 | 0.357 | 0.425
4 | PC-3 [JPC-3] | 0.98 | 0.829 | 0.73 | 0.815 | 1.29 | 0.984 | 1.22 | 1.16 | 0.925 | 0.458 | 0.364 | 0.411 | 0.492 | 1.08 | 0.996 | 0.739 | 1.1
5 | LXF-289 | 1.09 | 1.03 | 0.81 | 1.19 | 0.939 | 0.722 | 0.893 | 0.866 | 0.678 | 0.968 | 0.874 | 0.765 | 1.08 | 0.204 | 0.195 | 0.204 | 0.229
6 | NCI-H1437 | 0.562 | 0.558 | 0.468 | 0.584 | 0.332 | 0.293 | 0.292 | 0.296 | 0.294 | 1.15 | 0.769 | 0.719 | 0.974 | 0.439 | 0.394 | 0.353 | 0.434
7 | NCI-H838 | 0.976 | 0.766 | 0.679 | 0.811 | 0.261 | 0.23 | 0.243 | 0.242 | 0.225 | 1.23 | 0.835 | 0.831 | 1.32 | 0.275 | 0.24 | 0.256 | 0.304
8 | NCI-H650 | 0.881 | 0.894 | 0.728 | 0.776 | 0.947 | 1.15 | 1.08 | 1.18 | 1.11 | 0.87 | 0.703 | 0.897 | 0.886 | 0.788 | 0.693 | 0.792 | 0.807
9 | NCI-H520 | 0.765 | 0.491 | 0.531 | 0.474 | 0.669 | 0.596 | 0.67 | 0.707 | 0.286 | 1.11 | 0.817 | 0.802 | 0.794 | 0.468 | 0.369 | 0.348 | 0.409
10 | H3255 | 0.794 | 0.835 | 0.79 | 0.945 | 0.563 | 0.486 | 0.597 | 0.537 | 0.504 | 0.253 | 0.28 | 0.25 | 0.216 | 0.605 | 0.585 | 0.63 | 0.598
11 | PC-14 | 0.925 | 0.77 | 0.753 | 1.11 | 0.136 | 0.121 | 0.105 | 0.105 | 0.0944 | 0.333 | 0.294 | 0.32 | 0.372 | 0.707 | 0.479 | 0.768 | 0.577
12 | HCC-78 | 0.464 | 0.59 | 0.482 | 0.55 | 0.95 | 0.905 | 0.892 | 0.89 | 0.915 | 0.76 | 0.58 | 0.704 | 0.885 | 0.449 | 0.461 | 0.386 | 0.491
13 | CAL-12T | 1.01 | 0.924 | 0.94 | 0.997 | 1.37 | 1.18 | 1.15 | 1.33 | 0.716 | 0.698 | 0.557 | 0.775 | 0.68 | 0.343 | 0.3 | 0.326 | 0.341
14 | NCI-H3122 | 1.04 | 1.02 | 1.08 | 1.13 | 0.185 | 0.166 | 0.161 | 0.159 | 0.151 | 1.16 | 0.986 | 1.03 | 1.14 | 0.446 | 0.41 | 0.377 | 0.417
15 | NCI-H596 | 1.35 | 1.09 | 1 | 1 | 0.496 | 0.485 | 0.521 | 0.525 | 0.521 | 1.1 | 1.02 | 1.01 | 1.06 | 1.13 | 0.958 | 0.872 | 0.979
16 | NCI-H661 | 0.975 | 0.853 | 0.92 | 0.889 | 0.95 | 0.979 | 0.867 | 0.848 | 0.822 | 0.509 | 0.584 | 0.513 | 0.511 | 0.357 | 0.351 | 0.377 | 0.361
17 | NCI-H1666 | 0.916 | 0.882 | 0.978 | 0.847 | 0.788 | 0.79 | 0.766 | 0.788 | 0.715 | 0.763 | 0.587 | 0.59 | 0.701 | 0.623 | 0.612 | 0.745 | 0.579
18 | COR-L23 | 1.64 | 0.995 | 0.77 | 1.17 | 0.22 | 0.23 | 0.198 | 0.219 | 0.21 | 1.41 | 0.811 | 0.716 | 1.16 | 0.208 | 0.225 | 0.24 | 0.196
19 | NCI-H460 |  | 1.11 | 0.703 | 1.84 | 0.0707 | 0.055 | 0.0564 | 0.0595 | 0.0641 | 1.03 | 1.3 | 0.731 |  | 0.735 | 0.438 | 0.326 | 0.792
